From patent US10583135B2, “Compositions for treating CMT and related disorders” (Pharnext, priority 2009, dated 2020)

The compounds below were run on Myelin Basic Protein (MBP) expression (assay: MBP expression in PMP22 TG sensory neuron/Schwann cell co-cultures (in vitro model of CMT1A)). Settings: day 10 (=17 days of culture), doses 1 and 6, in presence of ascorbic acid, compared to control.
Assay type: cell-based, rat
Procedure: A model of co-culture was used as an in vitro model of CMT1A. This model of myelination consists in co-culturing sensory neurons and Schwann cells from male PMP22 Transgenic (TG) dissociated Dorsal Root Ganglia (DRG).
The aim of this study is to assess the effect of 3 test compounds (+/− baclofen, naltrexone and sorbitol) and Mix7 (a mixture of these 3 drugs) on myelination process. The effect of the 3 test compounds, and their mixture on myelination, are assessed by evaluating Myelin Basic Protein (MBP) expression in presence of ascorbic acid.
Each embryo is dispatched on numerating petri dish (35 mm of diameter). The head of embryo is cut, placed on 1.5 ml tube DNAase free; the ADN is extracted with the Extract-N-Amp Tissue Kit (Sigma Aldrich). The genotyping (Male (M) and female (F), wild type and PMP22 transgenic) is performed with the kit Fast SYBR Green Master Mix (Applied Biosystem). This genotyping is performed in parallel of the dissection of dorsal root ganglia (DRG), so that at the end of the dissection, only one type of culture (DRG from transgenic male) is done. DRG of each embryo is collected, placed in ice-cold medium of Leibovitz (L15, Invitrogen). At the end of the dissection, DRG of TGM are pooled and dissociated by trypsinization (trypsin EDTA, 0.05%; Invitrogen) for 20 min at 37° C. The reaction is stopped by addition of DMEM containing 10% of fetal bovine serum (FBS) in the presence of DNAase I (Roche). The suspension is triturated with a 10 ml pipette. Cells are then centrifuged at 350×g for 10 min at room temperature. […] Viable cells are counted in a Neubauer cytometer using the trypan blue exclusion test (Sigma) and seeded on the basis of 10 000 cells per well in 96 well-plates (Greiner) treated with poly-L-lysine. […]
Three separate and independent cultures of DRG (from TG embryos male rats) are done. These conditions are assessed in presence of ascorbic acid, 6 wells per condition. The solution ready to use of all test compounds are extemporaneously prepared from a stock solution, stored at −20° C. […]
For `O=C1CC[C@@]2(O)[C@H]3Cc4ccc(O)c5c4[C@@]2(CCN3CC2CC2)[C@H]1O5` [naltrexone], the MBP expression was “no substantial effect”.
With `OC[C@@H](O)[C@@H](O)[C@H](O)[C@@H](O)CO` [D-sorbitol] the MBP expression was “no substantial effect”.
With `NCC(CC(=O)O)c1ccc(Cl)cc1` (racemic) [(RS)-baclofen] the MBP expression was “no substantial effect”.
